Values of other authors in article PMC7394005, “Assessing the Selectivity of FXR, LXRs, CAR, and RORγ Pharmaceutical Ligands With Reporter Cell Lines” (Frontiers in Pharmacology, 2020).

Key:
[1] = system: LXRβ; details: luciferase reporter gene with LXR response elements in HEK293 cells; ref Peng et al., 2011; cited from earlier work
[2] = system: CAR/SRC-1; design: method as in Maglich et al., 2003; details: ref Maglich et al., 2003; read-out: EC50 in the CAR/SRC-1 FRET assay; cited from earlier work
[3] = system: FXR; design: method as in Yu et al., 2014; details: ref Yu et al., 2014; read-out: IC50 in FXR cell-based antagonistic assays; cited from earlier work
[4] = system: hPXR LBD; design: method as in Shukla et al., 2011; details: ref Shukla et al., 2011; cited from earlier work
[5] = system: RORγt; design: method as in Rene et al., 2014; Chang et al., 2016; details: full-length RORγt transfected cells; ref Rene et al., 2014; Chang et al., 2016; read-out: EC50, induction of reporter gene expression; cited from earlier work
[6] = system: type 1 diabetes model mice; design: method as in Solt et al., 2015; details: ref Solt et al., 2015; cited from earlier work
[7] = system: hPXR; design: method as in Lin et al., 2017; details: ref Lin et al., 2017; read-out: IC50 in the cell-based hPXR antagonistic assay; cited from earlier work

For `O=C(O)Cc1cccc(OCCCN(Cc2cccc(C(F)(F)F)c2Cl)CC(c2ccccc2)c2ccccc2)c1` [GW3965], the LXRβ agonistic potency [1] is given as “nanomolar”.
In the case of `Clc1ccc(-c2nc3sccn3c2/C=N/OCc2ccc(Cl)c(Cl)c2)cc1` [CITCO], the EC50 [2] is listed as 49 nM.
For `COc1cccc(Cn2cc(C(=O)Nc3ccc(C)c(S(=O)(=O)N4CCOCC4)c3)c(-c3ccc(C)cc3)n2)c1` [DY268], the IC50 [3] is given as 468 nM.
For `CCOP(=O)(OCC)C(=Cc1cc(C(C)(C)C)c(O)c(C(C)(C)C)c1)P(=O)(OCC)OCC` [SR12813], the EC50 [4] is listed as 440 nM.
In the case of `O=C(Nc1ccc(C(O)(C(F)(F)F)C(F)(F)F)cc1)c1ccc(C(F)(F)F)cc1` [SR1078], the EC50 [5] is given as 800 nM.
For `CC(=O)Nc1nc(C)c(S(=O)(=O)Nc2ccc(C(O)(C(F)(F)F)C(F)(F)F)cc2)s1` [SR1001], the “Diabetes incidence and insulitis” value [6] is listed as “significantly reduced diabetes incidence and insulitis”.
For SPA70, the IC50 [7] is listed as 510 nM.
